Where a name gives a salt, the structure may show the parent alone.
Tests used:
[1] = tested on: A549 cells; assay: Inhibition of PGE2 production in A549 cell (IL-1β stimulated); assay type: cell-based, human; details: Homo sapiens, A549, 24 h, IL-1β 5 ng/well, PGE2 in culture medium
Description: Human A549 cells were seeded onto a 96-well plate at 2×10^4 cells/100 μL per well and allowed to incubate overnight. After removing the culture medium and washing with phosphate buffered saline, the culture medium was replaced by RPMI culture medium with 3% FBS containing a DMSO solution containing test compound or DMSO alone (such that DMSO final concentration would be […] in each). After incubation for 60 minutes, IL-1β (5 ng/well) was added and incubated at 37° C. for 24 hours. Then, PGE2 in the culture medium was measured using HTRF kit (Cisbio International, catalogue #62P2APEC), and PGF2α in the culture medium was measured using EIA kit (Cayman Chemical Company, catalogue #516011). The solution free of test compound was used as positive control, and the solution free of test compound and IL-1β was used as negative control. 100% activity was defined as PGE2 and PGF2α production in the positive control minus PGE2 and PGF2α production in the negative control. IC50 value was calculated by standard method.

[2] = target: human mPGES-1 (Homo sapiens (Human), UniProt O14684); assay: mPGES-1 inhibiting activity (microsome fractions, PGE2 by HTRF); assay type: biochemical; details: microsomes from CHO-K1 cells transfected with human mPGES-1; PGH2 1 μM, 4° C., 60 seconds; read-out: mPGES-1 Inhibition IC50
Description: mPGES-1 microsome fractions were prepared from CHO-K1 cells transiently transfected with plasmid encoding the human mPGES-1cDNA. Microsomes were diluted with potassium phosphate buffer containing reduced glutathione (pH7.4), and DMSO containing test compound or DMSO alone was added (such that DMSO final concentration would be 1% in each) and incubated at 4° C. for 20 minutes. Then, the enzymatic reactions were initiated by the addition of PGH2 substrate (final concentration 1 μM) and incubated at 4° C. for 60 seconds. The reaction was terminated by the addition of a citrate solution (final citrate concentration 50 mM) containing ferric chloride (final concentration 1 mg/mL). PGE2 production in the enzyme reaction aliquot was measured using HTRF kit (Cisbio International, catalogue #62P2APEC). The solution free of test compound was used as positive control, and the solution free of test compound and microsome sample was used as negative control. 100% activity was defined as PGE2 production in the positive control minus PGE2 production in negative control. IC50 value was calculated by standard method.

human mPGES-1, sequence (O14684 whole entry): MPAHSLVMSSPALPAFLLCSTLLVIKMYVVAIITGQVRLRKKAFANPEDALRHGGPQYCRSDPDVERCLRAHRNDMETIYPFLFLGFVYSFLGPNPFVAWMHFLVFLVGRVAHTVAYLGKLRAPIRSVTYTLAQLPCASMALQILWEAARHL

IC50 [1] [µM]	IC50 [2] [µM]	Compound
0.24	0.0076	O=C(Nc1cc(C(=O)NC2CCCCC2)c2nc[nH]c2c1)c1ccccc1C(F)(F)F [Example 2, N-Cyclohexyl-6-({[2-(trifluoromethyl)phenyl]carbonyl}amino)-1H-benzimidazole-4-carboxamide]
0.0246	0.0015	Cc1c(Cl)cccc1NC(=O)c1cc(NC(=O)c2ccccc2C(F)(F)F)cc2[nH]cnc12 [Example 3, N-(3-Chloro-2-methylphenyl)-6-({[2-(trifluoromethyl)phenyl]carbonyl}mino)-1H-benzimidazole-4-carboxamide]
0.342	0.105	O=C(Nc1cc2c(c(C(=O)NC3CCCCC3)c1)OCC2)c1ccccc1C(F)(F)F [Example 7, N-Cyclohexyl-5-({[2-(trifluoromethyl)phenyl]carbonyl}amino)-2,3-dihydro-1-benzofuran-7-carboxamide]
0.106	0.16	Cc1c(Cl)cccc1NC(=O)c1cc(NC(=O)c2ccccc2C(F)(F)F)cc2c1OCC2 [Example 8, N-(3-Chloro-2-methylphenyl)-5-({[2-(trifluoromethyl)phenyl]carbonyl}amino)-2,3-dihydro-1-benzofuran-7-carboxamide]
0.0129	0.0066	COCc1nc2c(C(=O)Nc3cccc(Cl)c3C)cc(NC(=O)c3ccccc3C(F)(F)F)cc2[nH]1 [Example 11, N-(3-chloro-2-methylphenyl)-2-(methoxymethyl)-6-({[2-(trifluoromethyl)phenyl]carbonyl}amino)-1H-benzimidazole-4-carboxamide]
0.041	0.0071	Cc1nc2c(C(=O)NCc3ccccc3C(F)(F)F)cc(NC(=O)c3ccccc3C(F)(F)F)cc2[nH]1 [Example 12, 2-Methyl-N-[2-(trifluoromethyl)benzyl]-6-({[2-(trifluoromethyl)phenyl]carbonyl}amino)-1H-benzimidazole-4-carboxamide hydrochloride]
0.0756	0.0351	Cc1nc2c(C(=O)NC3CCCCC3)cc(NC(=O)c3ccccc3C(F)(F)F)cc2[nH]1 [Example 13, N-Cyclohexyl-2-methyl-6-({[2-(trifluoromethyl)phenyl]carbonyl}amino)-1H-benzimidazole-4-carboxamide hydrochloride]
0.0152	0.0038	Cc1nc2c(C(=O)Nc3cccc(Cl)c3C)cc(NC(=O)c3ccccc3C(F)(F)F)cc2[nH]1 [Example 14, N-(3-Chloro-2-methylphenyl)-2-methyl-6-({[2-(trifluoromethyl)phenyl]carbonyl}amino)-1H-benzimidazole-4-carboxamide hydrochloride]
0.465	0.0374	Cc1nc2c(C(=O)NC3CCCC3)cc(NC(=O)c3ccccc3C(F)(F)F)cc2[nH]1 [Example 15, N-Cyclopentyl-2-methyl-6-({[2-(trifluoromethyl)phenyl]carbonyl}amino)-1H-benzimidazole-4-carboxamide]
1.3	0.0639	Cc1nc2c(C(=O)NC3CCC3)cc(NC(=O)c3ccccc3C(F)(F)F)cc2[nH]1 [Example 16, N-Cyclobutyl-2-methyl-6-({[2-(trifluoromethyl)phenyl]carbonyl}amino)-1H-benzimidazole-4-carboxamide]
0.0216	0.0098	CCc1nc2c(C(=O)Nc3cccc(Cl)c3C)cc(NC(=O)c3ccccc3C(F)(F)F)cc2[nH]1 [Example 17, N-(3-Chloro-2-methylphenyl)-2-ethyl-6-({[2-(trifluoromethyl)phenyl]carbonyl}amino)-1H-benzimidazole-4-carboxamide]
0.11	0.0216	CCc1nc2c(C(=O)NC3CCCCC3)cc(NC(=O)c3ccccc3C(F)(F)F)cc2[nH]1 [Example 18, N-Cyclohexyl-2-ethyl-6-({[2-(trifluoromethyl)phenyl]carbonyl}amino)-1H-benzimidazole-4-carboxamide]
0.0478	0.0094	CCc1nc2c(C(=O)NCc3ccccc3C(F)(F)F)cc(NC(=O)c3ccccc3C(F)(F)F)cc2[nH]1 [Example 19, 2-Ethyl-N-[2-(trifluoromethyl)benzyl]-6-({[2-(trifluoromethyl)phenyl]carbonyl}amino)-1H-benzimidazole-4-carboxamide]
0.098	0.0056	COCc1nc2c(C(=O)NC3CCCCC3)cc(NC(=O)c3ccccc3C(F)(F)F)cc2[nH]1 [Example 20, N-Cyclohexyl-2-(methoxymethyl)-6-({[2-(trifluoromethyl)phenyl]carbonyl}amino)-1H-benzimidazole-4-carboxamide]
0.0694	0.0083	COCc1nc2c(C(=O)NCc3ccccc3C(F)(F)F)cc(NC(=O)c3ccccc3C(F)(F)F)cc2[nH]1 [Example 21, 2-(Methoxymethyl)-N-[2-(trifluoromethyl)benzyl]-6-({[2-(trifluoromethyl)phenyl]carbonyl}amino)-1H-benzimidazole-4-carboxamide]
0.104	0.0048	COCc1nc2c(C(=O)Nc3ccccc3C)cc(NC(=O)c3ccccc3C(F)(F)F)cc2[nH]1 [Example 22, 2-(Methoxymethyl)-N-(2-methylphenyl)-6-({[2-(trifluoromethyl)phenyl]carbonyl}amino)-1H-benzimidazole-4-carboxamide hydrochloride]
0.116	0.0072	COCc1nc2c(C(=O)Nc3ccc(C)cc3)cc(NC(=O)c3ccccc3C(F)(F)F)cc2[nH]1 [Example 23, 2-(Methoxymethyl)-N-(4-methylphenyl)-6-({[2-(trifluoromethyl)phenyl]carbonyl}amino)-1H-benzimidazole-4-carboxamide hydrochloride]
0.751	0.0105	COCc1nc2c(C(=O)NCc3ccccc3Cl)cc(NC(=O)c3ccccc3C(F)(F)F)cc2[nH]1 [Example 24, N-(2-Chlorobenzyl)-2-(methoxymethyl)-6-({[2-(trifluoromethyl)phenyl]carbonyl}amino)-1H-benzimidazole-4-carboxamide hydrochloride]
0.85	0.089	COCc1nc2c(C(=O)NCc3ccc(C)cc3)cc(NC(=O)c3ccccc3C(F)(F)F)cc2[nH]1 [Example 25, 2-(Methoxymethyl)-N-(4-methylbenzyl)-6-({[2-(trifluoromethyl)phenyl]carbonyl}amino)-1H-benzimidazole-4-carboxamide hydrochloride]
0.872	0.172	COCc1nc2c(C(=O)NC3CCC(F)(F)CC3)cc(NC(=O)c3ccccc3C(F)(F)F)cc2[nH]1 [Example 26, N-(4,4-Difluorocyclohexyl)-2-(methoxymethyl)-6-({[2-(trifluoromethyl)phenyl]carbonyl}amino)-1H-benzimidazole-4-carboxamide hydrochloride]
0.016	0.0024	COCc1nc2c(C(=O)Nc3ccc(C(C)(C)C)cc3)cc(NC(=O)c3ccccc3C(F)(F)F)cc2[nH]1 [Example 27, N-(4-tert-Butylphenyl)-2-(methoxymethyl)-6-({[2-(trifluoromethyl)phenyl]carbonyl}amino)-1H-benzimidazole-4-carboxamide hydrochloride]

From patent publication US9216968B2, “Heterocyclic derivative and pharmaceutical drug” (NIPPON SHINYAKU CO., LTD., priority 2011, dated 2015)
